Measured values published in ChEMBL document CHEMBL5346964, “Discovery of LNP1892: A Precision Calcimimetic for the Treatment of Secondary Hyperparathyroidism” (J Med Chem, 2023).
pIC50: −log10 of the molar value.

What was measured:
[1] = Metabolic stability in rat liver cytosol measured upto 60 mins by LC-MS/MS method; assay type: ADME, subcellular; details: read-out: Stability
[2] = Drug excretion in BALB/c mouse assessed as drug recovery in urine at 1 mg/kg, iv; assay type: ADME, organism-based; details: read-out: Drug recovery
[3] = Chemical stability of the compound in SGF measured after 0.5 to 4 hrs; assay type: physicochemical; details: simulated gi fluid; time 0.5-4 hrs
[4] = AUC in mouse at 50 mg/kg per day, po via gavage administered for 13 weeks; assay type: ADME, organism-based; design: dose 50 mg/kg, time 13 weeks, route po; details: in vivo
[5] = Ratio of drug concentration in blood to thyroid in Sprague-Dawley rat at 10 mg/kg, po measured upto 24 hrs by LC-MS/MS analysis; assay type: ADME, organism-based; details: in vivo
[6] = Oral bioavailability in Sprague-Dawley rat at 10 mg/kg administered as solution measured upto 24 hrs by LC-MS/MS analysis; assay type: ADME, organism-based; details: in vivo
[7] = Half life in Sprague-Dawley rat at 1 mg/kg, iv measured upto 24 hrs by LC/MS-MS analysis; assay type: ADME, organism-based; details: in vivo
[8] = Tmax in Sprague-Dawley rat at 1 mg/kg, iv measured upto 24 hrs by LC-MS/MS analysis; assay type: ADME, organism-based; details: in vivo
[9] = Chemical stability of the compound at pH 7.4 measured after 0.5 to 4 hrs; assay type: physicochemical; details: buffer, time 0.5-4 hrs
CYP2D6 = CYP2D6 (Homo sapiens, UniProt P10635); test: Inhibition of CYP2D6 in human liver microsomes at 1 uM preincubated for 5 mins followed by NADPH addition by LC-MS/MS analysis relative to control; assay type: ADME, Microsome
Sequence of CYP2D6 (P10635 whole entry): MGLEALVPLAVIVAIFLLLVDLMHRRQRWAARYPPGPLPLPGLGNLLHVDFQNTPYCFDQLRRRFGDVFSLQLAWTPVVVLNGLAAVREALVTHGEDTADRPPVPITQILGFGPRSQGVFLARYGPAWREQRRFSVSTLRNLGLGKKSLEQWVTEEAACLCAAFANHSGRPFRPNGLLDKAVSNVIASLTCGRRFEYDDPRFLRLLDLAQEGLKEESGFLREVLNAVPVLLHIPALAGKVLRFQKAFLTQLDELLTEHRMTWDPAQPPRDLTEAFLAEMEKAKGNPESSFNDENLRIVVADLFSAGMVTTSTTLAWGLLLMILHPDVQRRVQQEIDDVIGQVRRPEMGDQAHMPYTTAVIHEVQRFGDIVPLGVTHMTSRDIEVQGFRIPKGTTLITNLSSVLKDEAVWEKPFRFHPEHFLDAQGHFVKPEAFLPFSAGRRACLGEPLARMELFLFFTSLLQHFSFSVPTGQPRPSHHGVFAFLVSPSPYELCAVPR

[10] = AUC(0 to 24 hrs) in Sprague-Dawley rat at 30 mg/kg; assay type: ADME, organism-based; design: dose 30 mg/kg; details: in vivo
[11] = Effect on parathyroid hormone in overnight fasted Sprague-Dawley rat assessed as reduction in plasma PTH level at 10 mg/kg, po measured after 0.5 hrs of post treatment by sandwich ELISA analysis; assay type: functional; design: scale not given: the % may be the effect or the level left
Rattus norvegicus [12] = test: Chronic effect on parathyroid hormone in overnight fasted adenine diet-induced chronic kidney disease Wistar rat model plasma assessed as reduction in plasma PTH level at 3 mg/kg, po qd measured after 27 days of post treatment by sandwich ELISA analysis; assay type: functional; design: scale not given: the % may be the effect or the level left; details: time 27 day
[13] = AUC(0 to 24 hrs) in Sprague-Dawley rat at 10 mg/kg; assay type: ADME, organism-based; design: dose 10 mg/kg; details: in vivo
Cytochrome P450 2B6 = target: T1, Cytochrome P450 2B6 (Homo sapiens, UniProt P20813); test: Inhibition of CYP2B6 in human liver microsomes preincubated for 5 mins followed by NADPH addition by LC-MS/MS analysis; assay type: ADME, Microsome
T1 sequence (P20813 whole entry): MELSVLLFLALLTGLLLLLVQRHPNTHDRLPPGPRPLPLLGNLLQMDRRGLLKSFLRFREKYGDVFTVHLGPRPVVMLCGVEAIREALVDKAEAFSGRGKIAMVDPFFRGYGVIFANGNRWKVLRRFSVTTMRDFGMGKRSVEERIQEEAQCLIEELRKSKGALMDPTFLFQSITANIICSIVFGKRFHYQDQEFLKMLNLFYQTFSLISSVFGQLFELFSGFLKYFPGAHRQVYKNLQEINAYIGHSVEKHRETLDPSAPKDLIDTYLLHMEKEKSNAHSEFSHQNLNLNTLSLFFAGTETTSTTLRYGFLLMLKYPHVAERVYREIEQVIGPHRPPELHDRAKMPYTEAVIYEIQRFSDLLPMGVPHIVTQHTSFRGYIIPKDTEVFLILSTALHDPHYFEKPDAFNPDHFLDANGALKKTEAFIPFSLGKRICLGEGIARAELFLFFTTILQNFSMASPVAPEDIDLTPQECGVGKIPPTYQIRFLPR

[14] = Tmax in Sprague-Dawley rat at 30 mg/kg; assay type: ADME, organism-based; details: in vivo
[15] = Half life in cynomolgus monkey at 1 mg/kg, iv measured upto 24 hrs by LC/MS-MS analysis; assay type: ADME, organism-based, Macaca fascicularis; details: in vivo
[16] = Drug excretion in rat assessed as drug recovery in feces at 10 mg/kg, po; assay type: ADME, organism-based; details: faeces, read-out: Drug recovery
[17] = AUC in Beagle dog at 5 mg/kg, po measured upto 24 hrs by LC/MS-MS analysis; assay type: ADME, organism-based, Canis lupus familiaris; design: dose 5 mg/kg, time < 24 hrs, route po; details: in vivo
[18] = Tmax in Sprague-Dawley rat at 10 mg/kg, po measured upto 24 hrs by LC/MS-MS analysis; assay type: ADME, organism-based; details: in vivo
Rattus norvegicus [19] = test: Subchronic effect on parathyroid hormone in overnight fasted adenine diet-induced chronic kidney disease Wistar rat model plasma assessed as reduction in plasma PTH level at 1 mg/kg, po qd measured after 27 days of post treatment by sandwich ELISA analysis; assay type: functional; design: scale not given: the % may be the effect or the level left; details: time 27 day
[20] = Plasma protein binding in human; assay type: ADME; details: read-out: PPB
[21] = Drug excretion in BALB/c mouse assessed as drug recovery in feces at 1 mg/kg, iv; assay type: ADME, organism-based; details: faeces, read-out: Drug recovery
[22] = Volume of distribution at steady state in cynomolgus monkey at 1 mg/kg, iv measured upto 24 hrs by LC/MS-MS analysis; assay type: ADME, organism-based, Macaca fascicularis; details: in vivo, read-out: Vdss
CYP3A4 = CYP3A4 (Homo sapiens, UniProt P08684); test: Inhibition of CYP3A4 in human liver microsomes at 10 uM preincubated for 5 mins followed by NADPH addition by LC-MS/MS analysis relative to control; assay type: ADME, Microsome
Sequence of CYP3A4 (P08684 whole entry): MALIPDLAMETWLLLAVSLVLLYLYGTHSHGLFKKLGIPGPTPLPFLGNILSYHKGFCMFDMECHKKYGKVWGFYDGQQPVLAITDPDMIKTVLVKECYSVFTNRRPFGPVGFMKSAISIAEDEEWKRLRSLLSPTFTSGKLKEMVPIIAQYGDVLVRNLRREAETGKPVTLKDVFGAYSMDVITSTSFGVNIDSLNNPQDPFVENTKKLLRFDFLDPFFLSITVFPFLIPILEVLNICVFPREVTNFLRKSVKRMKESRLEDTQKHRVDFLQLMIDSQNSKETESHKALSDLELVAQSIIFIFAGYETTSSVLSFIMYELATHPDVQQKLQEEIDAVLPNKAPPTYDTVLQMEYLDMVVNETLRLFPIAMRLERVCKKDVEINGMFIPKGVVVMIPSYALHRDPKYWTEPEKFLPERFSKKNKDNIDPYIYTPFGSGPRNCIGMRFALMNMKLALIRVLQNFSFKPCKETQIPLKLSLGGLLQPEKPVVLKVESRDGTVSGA

[23] = Cmax in Sprague-Dawley rat at 30 mg/kg; assay type: ADME, organism-based; design: dose 30 mg/kg; details: in vivo
[24] = Plasma clearance in BALB/c mouse at 1 mg/kg, iv measured upto 24 hrs by LC/MS-MS analysis; assay type: ADME, organism-based
[25] = Clearance in Sprague-Dawley rat at 10 mg/kg, po administered as solution measured upto 24 hrs by LC-MS/MS analysis; assay type: ADME, organism-based; details: in vivo
[26] = Tmax in Sprague-Dawley rat at 10 mg/kg, po administered as suspension measured upto 24 hrs by LC-MS/MS analysis; assay type: ADME, organism-based; details: in vivo
[27] = target: Delta-type opioid receptor (Homo sapiens) (UniProt P41143); test: Inhibition of human recombinant DOP receptor at 10 uM relative to control
Sequence of Delta-type opioid receptor (Homo sapiens) (P41143 whole entry): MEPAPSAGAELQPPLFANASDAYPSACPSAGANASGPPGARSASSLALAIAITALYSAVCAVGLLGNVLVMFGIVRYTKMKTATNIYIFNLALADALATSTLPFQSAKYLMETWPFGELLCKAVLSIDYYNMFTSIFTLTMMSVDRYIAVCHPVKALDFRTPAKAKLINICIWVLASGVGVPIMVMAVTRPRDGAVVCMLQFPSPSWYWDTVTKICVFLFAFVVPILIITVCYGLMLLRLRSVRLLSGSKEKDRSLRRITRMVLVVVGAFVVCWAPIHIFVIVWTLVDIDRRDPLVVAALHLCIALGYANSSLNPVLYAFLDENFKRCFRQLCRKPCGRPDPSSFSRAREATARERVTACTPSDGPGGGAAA

[28] = Oral bioavailability in BALB/c mouse at 10 mg/kg measured upto 24 hrs by LC/MS-MS analysis; assay type: ADME, organism-based; details: in vivo
[29] = Effect on parathyroid hormone in overnight fasted Sprague-Dawley rat assessed as reduction in plasma PTH level at 3 mg/kg, po measured after 2 hrs of post treatment by sandwich ELISA analysis; assay type: functional; design: scale not given: the % may be the effect or the level left
[30] = Cmax in Sprague-Dawley rat at 100 mg/kg; assay type: ADME, organism-based; design: dose 100 mg/kg; details: in vivo
Rattus norvegicus [31] = test: Effect on parathyroid hormone in po dosed overnight fasted Sprague-Dawley rat assessed as reduction in plasma PTH level measured after 0.5 to 6 hrs of post treatment by sandwich ELISA analysis; assay type: functional, organism-based; details: dose 3-30 mg/kg, time 0.5-6 hrs
[32] = Chemical stability of the compound in 0.1N NaOH measured after 0.5 to 4 hrs; assay type: physicochemical; details: time 0.5-4 hrs
[33] = Kinetic solubility of compound upto 500 uM at pH 2 measured after 16 hrs under shaking condition by UV-visible method; assay type: physicochemical; details: buffer, read-out: Kinetic_solubility
[34] = AUC(0 to t) in human at 10 mg/kg, po administered as single dose; assay type: ADME, organism-based; design: dose 10 mg/kg, route po; details: in vivo
[35] = Effect on parathyroid hormone in overnight fasted Sprague-Dawley rat assessed as reduction in plasma PTH level at 10 mg/kg, po measured after 4 hrs of post treatment by sandwich ELISA analysis (reference value: 18%); assay type: functional; design: scale not given: the % may be the effect or the level left

For `Cc1ccc([C@@H]2C[C@H](CN[C@H](C)c3cccc4ccccc34)Oc3ccccc32)cc1C(=O)O.Cl`, the remaining at 1 h [1] was > 80%, the dose excreted [2] was < 1% and the Stability [3] was “Stable”. For the same compound, the AUC at 2184 h [4] was 321 µg·h/mL, the Ratio [5] was 0.3 and the bioavailability [6] was 99%. For the same compound, the half-life [7] was 240 min, the Tmax [8] was 4.8 min and the Stability [9] was “Stable”. It also gave an inhibition at 1 µM (CYP2D6) of 4%, an AUC(0-t) [10] of 116 µM·h and an Activity [11] of 100%. It also gave an Activity (Rattus norvegicus [12]) of 83%, an AUC(0-t) [13] of 23 µM·h and a pIC50 (Cytochrome P450 2B6) of 4.19. The Tmax [14] was 30 min, the half-life [15] was 300 min and the dose excreted [16] was 3%. The AUC at 24 h [17] was 63 µM·h, the Tmax [18] was 36 min and the Activity (Rattus norvegicus [19]) was 83%. For the same compound, the fraction unbound [20] was < 0.01, the dose excreted [21] was 27% and the Vd [22] was 20 L/kg. It also gave an inhibition at 10 µM (CYP3A4) of 0%, a Cmax [23] of 24 µM and a clearance [24] of 2.6 mL/min/kg. The CL/F [25] was 6 mL/min/kg, the Tmax [26] was 60 min and the inhibition [27] was > 50%. For the same compound, the bioavailability [28] was 100%, the Activity [29] was 100% and the Cmax [30] was 53 µM. The Activity (Rattus norvegicus [31]) was “Dose-Dependent Effect”, the Stability [32] was “Stable” and the solubility kinetic at 16 h, 500 µM [33] was > 300 µM. The AUC(0-t) [34] was 1.84 µg·h/mL and the Activity [35] was 88%.
